Data on 15 compounds can be found in patent US10463651B2, “3-(1H-pyrrolo[3,2-C]pyridin-2-YL)-1H-indazoles and therapeutic uses thereof” (Samumed, LLC, priority 2015, dated 2019).

Some results are limits rather than exact numbers.

Assay type in all cases: cell-based
The subject of experiment [1] is Wnt activity (Sp5-Luc reporter, SW480 colon carcinoma cells). Briefly: Screening assay for Wnt activity (Sp5-Luc reporter gene assay in SW480 cells). As to conditions: Homo sapiens; for EC50: Sp5-Luc reporter, SW480 cells, incubated overnight. The essentials: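 SW480 colon carcinoma cells stably carrying Sp5 promoter (eight TCF/LEF sites)-driven firefly luciferase, plated at 4,000 cells/well in 1% FBS medium and incubated overnight at 37° C. Luminescence normalised to DMSO-only cells; EC50 from four-parameter variable-slope nonlinear regression.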
Background: In a reporter assay the amount or activity of a reporter protein is the signal.

In experiment [2] the test system is SW480 colon cancer cells. The experiment is described as follows: Cell viability assay (CellTiter-Blue). As to conditions: Homo sapiens; for EC50: 96 h, SW480 cell viability, four days, CellTiter-Blue; for inhibition at 10 µM: SW480, 96 h, read-out: percent inhibition at 10 μM. The essentials: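 Fluorescence from resazurin reduced to resorufin by metabolically active cells was the read-out, taken after ~3 h with CellTiter-Blue.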
(In general: The colour change of resazurin is a common sign of viable cells or microbes.)

The subject of experiment [3] is primary human fibroblasts derived from IPF patients (LL29 cells) treated with TGF-β1. The experiment is described as follows: Inhibition of the fibrotic process (αSMA staining) in TGF-β1-treated fibroblasts. The settings on record: Fibroblast, 96 h; for EC50: % αSMA-positive LL29 cells, TGF-β1 20 ng/mL, 4 days; for inhibition at 10 µM: read-out: percent inhibition at 10 μM. The essentials:
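LL29 fibroblasts from IPF patients, 1,500 cells/well in F12 with 1% FBS, stimulated with TGF-β1; TGF-β1 plus DMSO wells as controls. Incubation 4 days, then SYTOX green 1 μM final for 30 min at room temperature. Fibrotic response read as αSMA staining.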

The test system of experiment [4] is primary human mesenchymal stem cells (hMSCs). The experiment is described as follows: Induction of chondrogenesis in hMSCs (Rhodamine B / Nile Red nodule imaging). As to conditions: for Emax: maximum activity relative to TGF-β3 (10 ng/mL) positive control, read-out: Max. Activity as % TGF-β3 activity; for EC50: concentration required to induce 50% levels of chondrogenesis vs TGF-β3 positive control, read-out: Conc (nM) of 50% TGF-β3 activity. An excerpt:
Representative compounds were screened using primary human mesenchymal stem cells (hMSCs) to determine their ability to induce chondrogenesis (process by which cartilage is developed).
Primary human mesenchymal stem cells (hMSCs) were purchased from Lonza (Walkersville, Md.) and expanded in Mesenchymal Stem Cell Growth Media (Lonza). Cells between passage 3 and 6 were used for the experiments.
Area of nodules in each well was normalized to the average of 3 DMSO treated wells on the same plate using Excel (Microsoft Inc.). The normalized averages (fold change over DMSO) of 2 or 3 replicate wells for each compound concentration were calculated. Due to solubility limitations of some of the compounds, curve fitting was incomplete leading to inaccurate EC50 determinations.
Using TGF-β3 as a positive control, the concentration of representative compounds required to induce 50% levels of chondrogenesis is reported. In addition, the maximum activity of each compound and the respective dose that each compound reached maximum chondrogenesis activity is reported.

In experiment [5] the test system is IL-6 (THP-1 cells). The experiment is described as follows: IL-6 inhibition in LPS-stimulated THP-1 cells (HTRF). The settings on record: Homo sapiens; IL6 by HTRF, THP-1 cells, 500 ng/mL LPS, 22 hours. The essentials: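 THP-1 cells, pre-cultured 24 h in 1% FBS medium, treated with compound 2 h at 37 °C, then stimulated with 500 ng/mL LPS for 22 h. Secreted IL-6 measured by HTRF as the 665/620 nm ratio. Values normalized to DMSO; EC50 from four-parameter fit, duplicates.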
(Time-resolved FRET reads energy transfer from a long-lived donor to a nearby acceptor.)

As a reminder, the inhibition is the percentage by which the read-out fell short of the control. Regarding `CN(C)Cc1cncc(-c2ccc3[nH]nc(-c4cc5c(-c6ccc(F)cc6)nccc5[nH]4)c3c2)c1` [Compound 41, 1-(5-(3-(4-(4-Fluorophenyl)-1H-pyrrolo[3,2-c]pyridin-2-yl)-1H-indazol-5-yl)pyridin-3-yl)-N,N-dimethylmethanamine], the inhibition at 10 µM in experiment [1] (SW480, read-out: percent inhibition at 10 μM) amounted to 55.7%. For the same compound, the EC50 was greater than 10000 nM in experiment [1], 2990 nM in experiment [2], 2650 nM in experiment [3] and 9400 nM in experiment [5]. Besides, the Emax in experiment [4] was 46%.

Take `Fc1ccc(-c2nccc3[nH]c(-c4n[nH]c5ccc(-c6cncc(CN7CCCC7)c6)cc45)cc23)cc1` [Compound 42, 3-(4-(4-Fluorophenyl)-1H-pyrrolo[3,2-c]pyridin-2-yl)-5-(5-(pyrrolidin-1-ylmethyl)pyridin-3-yl)-1H-indazole]: the EC50 was determined as 3620 nM in experiment [1]; 1410 nM in experiment [2]; 1340 nM in experiment [3]; 30 nM in experiment [4]; 9010 nM in experiment [5]. Moreover, the Emax in experiment [4] stood at 98%.

`CCCC(=O)Nc1cncc(-c2ccc3[nH]nc(-c4cc5c(-c6ccc(F)cc6)nccc5[nH]4)c3c2)c1` [Compound 45, N-(5-(3-(4-(4-Fluorophenyl)-1H-pyrrolo[3,2-c]pyridin-2-yl)-1H-indazol-5-yl)pyridin-3-yl)butyramide]: the EC50 in experiment [1] worked out at 520 nM; in experiment [2], 262 nM; in experiment [3] it was 263 nM; in experiment [4], 900 nM; in experiment [5] it was 929 nM. The Emax in experiment [4] stood at 142%.

For the compound `O=C(Nc1cncc(-c2ccc3[nH]nc(-c4cc5c(-c6ccc(F)cc6)nccc5[nH]4)c3c2)c1)C1CCC1` [Compound 49, N-(5-(3-(4-(4-Fluorophenyl)-1H-pyrrolo[3,2-c]pyridin-2-yl)-1H-indazol-5-yl)pyridin-3-yl)cyclobutanecarboxamide], the EC50 in experiment [1] was found to be 365 nM; in experiment [2] it was 186 nM; in experiment [3] it was 115 nM; in experiment [4], 900 nM; in experiment [5] it was 1080 nM. Further, the Emax in experiment [4] was 160%.

For the compound `Fc1ccc(-c2nccc3[nH]c(-c4n[nH]c5ccc(-c6cncnc6)cc45)cc23)cc1` [Compound 55, 3-(4-(4-Fluorophenyl)-1H-pyrrolo[3,2-c]pyridin-2-yl)-5-(pyrimidin-5-yl)-1H-indazole], the EC50 was 1510 nM in experiment [1]; 1050 nM in experiment [2]; 326 nM in experiment [3]; 10 nM in experiment [4]; 1570 nM in experiment [5]. The Emax in experiment [4] came out at 194%.

Take `Nc1cncc(-c2ccc3[nH]nc(-c4cc5c(-c6ccccc6F)nccc5[nH]4)c3c2)c1` [Compound 59, 5-(3-(4-(2-Fluorophenyl)-1H-pyrrolo[3,2-c]pyridin-2-yl)-1H-indazol-5-yl)pyridin-3-amine]: the EC50 is 60 nM in experiment [1]; greater than 10000 nM in experiment [2]; greater than 10000 nM in experiment [3]; 2700 nM in experiment [4]; 9540 nM in experiment [5]. The inhibition at 10 µM in experiment [2] is 43.5%; in experiment [3] it was 46.6%. In addition, in experiment [4], the Emax turned out to be 70%.

On to `CCNCc1cncc(-c2ccc3[nH]nc(-c4cc5c(-c6ccccc6F)nccc5[nH]4)c3c2)c1` [Compound 62, N-((5-(3-(4-(2-Fluorophenyl)-1H-pyrrolo[3,2-c]pyridin-2-yl)-1H-indazol-5-yl)pyridin-3-yl)methyl)ethanamine], for which the EC50 amounted to 3360 nM in experiment [1]; 1280 nM in experiment [2]; 2490 nM in experiment [3]; 900 nM in experiment [4]; 2860 nM in experiment [5]. Also, the Emax in experiment [4] was found to be 59%.

With `CC(C)C(=O)Nc1cncc(-c2ccc3[nH]nc(-c4cc5c(-c6ccccc6F)nccc5[nH]4)c3c2)c1` [Compound 65, N-(5-(3-(4-(2-Fluorophenyl)-1H-pyrrolo[3,2-c]pyridin-2-yl)-1H-indazol-5-yl)pyridin-3-yl)isobutyramide], the EC50 in experiment [1] was determined as 170 nM; in experiment [2], 221 nM; in experiment [3] it was 98 nM; in experiment [4], 2700 nM; in experiment [5], 73 nM. In addition, in experiment [4], the Emax was determined as 108%.

In the case of `Fc1ccccc1-c1nccc2[nH]c(-c3n[nH]c4ccc(-c5cncc(CN6CCCCC6)c5)cc34)cc12` [Compound 71, 3-(4-(2-Fluorophenyl)-1H-pyrrolo[3,2-c]pyridin-2-yl)-5-(5-(piperidin-1-ylmethyl)pyridin-3-yl)-1H-indazole], the EC50 in experiment [1] came out at 2800 nM; in experiment [2] it was 1000 nM; in experiment [3], 1940 nM; in experiment [5], 1090 nM. Also, in experiment [4], the Emax was 16%.

With `CCCCC(=O)Nc1cncc(-c2ccc3[nH]nc(-c4cc5c(-c6ccccc6F)nccc5[nH]4)c3c2)c1` [Compound 75, N-(5-(3-(4-(2-Fluorophenyl)-1H-pyrrolo[3,2-c]pyridin-2-yl)-1H-indazol-5-yl)pyridin-3-yl)pentanamide], the EC50 was 345 nM in experiment [1]; 221 nM in experiment [2]; 254 nM in experiment [3]; 2700 nM in experiment [4]; 39 nM in experiment [5]. In experiment [4], the Emax worked out at 76%.

Take `O=C(Nc1cncc(-c2ccc3[nH]nc(-c4cc5c(-c6ccccc6F)nccc5[nH]4)c3c2)c1)C1CCCC1` [Compound 78, N-(5-(3-(4-(2-Fluorophenyl)-1H-pyrrolo[3,2-c]pyridin-2-yl)-1H-indazol-5-yl)pyridin-3-yl)cyclopentanecarboxamide]: the EC50 in experiment [1] is 418 nM; in experiment [2] it was 549 nM; in experiment [3], 841 nM; in experiment [4] it was 10 nM; in experiment [5], 78 nM. Also, the Emax in experiment [4] was 71%.

For `Fc1ccccc1-c1nccc2[nH]c(-c3n[nH]c4ccc(-c5cncc(CN6CCC(F)(F)C6)c5)cc34)cc12` [Compound 82, 5-(5-((3,3-Difluoropyrrolidin-1-yl)methyl)pyridin-3-yl)-3-(4-(2-fluorophenyl)-1H-pyrrolo[3,2-c]pyridin-2-yl)-1H-indazole], the EC50 in experiment [1] worked out at 233 nM; in experiment [2] it was 821 nM; in experiment [3], 221 nM; in experiment [4] it was 2700 nM; in experiment [5], 181 nM. In addition, the Emax in experiment [4] turned out to be 172%.

`Nc1cncc(-c2ccc3[nH]nc(-c4cc5c(-c6cccnc6)nccc5[nH]4)c3c2)c1` [Compound 87, 5-(3-(4-(Pyridin-3-yl)-1H-pyrrolo[3,2-c]pyridin-2-yl)-1H-indazol-5-yl)pyridin-3-amine]: the EC50 was 146 nM in experiment [1]; 562 nM in experiment [2]; 113 nM in experiment [3]; 100 nM in experiment [4]; 86 nM in experiment [5]. Besides, the Emax in experiment [4] was determined as 178%.

For `O=C(Nc1cncc(-c2ccc3[nH]nc(-c4cc5c(-c6cccnc6)nccc5[nH]4)c3c2)c1)c1ccccc1` [Compound 95, N-(5-(3-(4-(Pyridin-3-yl)-1H-pyrrolo[3,2-c]pyridin-2-yl)-1H-indazol-5-yl)pyridin-3-yl)benzamide], the EC50 was 421 nM in experiment [1], greater than 10000 nM in experiment [2], greater than 10000 nM in experiment [3] and 10 nM in experiment [5]. Moreover, the inhibition at 10 µM is 15.5% in experiment [2] and 0% in experiment [3]. Besides, the Emax in experiment [4] came to 19%.

In the case of `O=C(Nc1cncc(-c2ccc3[nH]nc(-c4cc5c(-c6cccnc6)nccc5[nH]4)c3c2)c1)C1CCC1` [Compound 105, N-(5-(3-(4-(Pyridin-3-yl)-1H-pyrrolo[3,2-c]pyridin-2-yl)-1H-indazol-5-yl)pyridin-3-yl)cyclobutanecarboxamide], the EC50 in experiment [1] was 111 nM; in experiment [2], 555 nM; in experiment [3], 2420 nM; in experiment [4], 10 nM; in experiment [5], 40 nM. Besides, the Emax in experiment [4] was found to be 172%.
